Test [1] concerns Tyrosine-protein kinase ABL1 (Homo sapiens), P00519 [T315I]. Nature of the test: Selectivity interaction (KinomeScan (DiscoverX)) EUB0000607a ABL1. Particulars: at 10 µM.
For test [2], the target named is Tyrosine-protein kinase ABL2 (Homo sapiens, UniProt P42684). Particulars: at 10 µM.
The subject of test [3] is Hepatocyte growth factor receptor (Homo sapiens), P08581 [Y1235D]. The settings on record: at 10 µM.
In test [4] the target is Hepatocyte growth factor receptor (Homo sapiens, UniProt P08581). Nature of the test: Selectivity interaction (Kinase counterscreening (biochemical assay)) EUB0000604a MET.
Chain of Hepatocyte growth factor receptor (P08581 whole entry): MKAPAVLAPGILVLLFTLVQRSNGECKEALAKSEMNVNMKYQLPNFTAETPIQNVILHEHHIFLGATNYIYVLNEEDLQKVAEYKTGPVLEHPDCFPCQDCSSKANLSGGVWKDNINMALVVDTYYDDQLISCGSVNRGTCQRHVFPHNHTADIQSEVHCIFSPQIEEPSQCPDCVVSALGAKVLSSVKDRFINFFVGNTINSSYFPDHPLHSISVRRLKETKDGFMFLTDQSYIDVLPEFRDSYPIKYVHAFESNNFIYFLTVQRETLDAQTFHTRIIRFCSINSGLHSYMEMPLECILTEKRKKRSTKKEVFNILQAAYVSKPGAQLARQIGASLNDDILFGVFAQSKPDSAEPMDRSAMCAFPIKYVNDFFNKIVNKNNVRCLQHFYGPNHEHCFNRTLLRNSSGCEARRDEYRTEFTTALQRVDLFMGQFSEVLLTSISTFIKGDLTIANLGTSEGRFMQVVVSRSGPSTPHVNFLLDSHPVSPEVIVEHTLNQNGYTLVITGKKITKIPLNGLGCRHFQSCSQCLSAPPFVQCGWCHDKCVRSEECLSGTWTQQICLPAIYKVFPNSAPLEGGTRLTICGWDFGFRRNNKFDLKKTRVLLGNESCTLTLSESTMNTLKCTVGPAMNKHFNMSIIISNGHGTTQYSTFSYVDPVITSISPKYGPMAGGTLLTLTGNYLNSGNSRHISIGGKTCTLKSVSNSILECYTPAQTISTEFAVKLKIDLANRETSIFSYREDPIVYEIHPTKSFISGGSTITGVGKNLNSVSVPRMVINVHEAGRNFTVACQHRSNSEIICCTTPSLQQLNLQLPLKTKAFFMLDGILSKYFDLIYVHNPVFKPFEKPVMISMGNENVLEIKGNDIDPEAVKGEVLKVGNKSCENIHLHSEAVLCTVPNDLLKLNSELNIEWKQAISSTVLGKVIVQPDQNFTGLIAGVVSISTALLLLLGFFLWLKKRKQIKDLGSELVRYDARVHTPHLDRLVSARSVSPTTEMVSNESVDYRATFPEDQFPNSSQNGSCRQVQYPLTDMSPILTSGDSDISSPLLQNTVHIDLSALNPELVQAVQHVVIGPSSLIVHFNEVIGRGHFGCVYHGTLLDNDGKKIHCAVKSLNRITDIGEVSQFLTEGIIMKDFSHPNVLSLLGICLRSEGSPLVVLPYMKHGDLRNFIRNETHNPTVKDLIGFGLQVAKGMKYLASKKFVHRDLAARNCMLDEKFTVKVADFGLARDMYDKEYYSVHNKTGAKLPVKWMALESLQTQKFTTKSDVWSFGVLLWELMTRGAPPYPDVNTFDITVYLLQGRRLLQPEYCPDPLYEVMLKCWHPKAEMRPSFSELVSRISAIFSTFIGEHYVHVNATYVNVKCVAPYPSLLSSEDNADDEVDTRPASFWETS
Test [5] addresses Ribosomal protein S6 kinase alpha-6 (Homo sapiens, UniProt Q9UK32). Kind of test: Selectivity interaction (KinomeScan (DiscoverX)) EUB0001049a RPS6KA6. Particulars: at 1 µM.
Test [6] deals with T1, Mitogen-activated protein kinase kinase kinase 6 (Homo sapiens) (UniProt O95382).
T1 sequence (whole entry): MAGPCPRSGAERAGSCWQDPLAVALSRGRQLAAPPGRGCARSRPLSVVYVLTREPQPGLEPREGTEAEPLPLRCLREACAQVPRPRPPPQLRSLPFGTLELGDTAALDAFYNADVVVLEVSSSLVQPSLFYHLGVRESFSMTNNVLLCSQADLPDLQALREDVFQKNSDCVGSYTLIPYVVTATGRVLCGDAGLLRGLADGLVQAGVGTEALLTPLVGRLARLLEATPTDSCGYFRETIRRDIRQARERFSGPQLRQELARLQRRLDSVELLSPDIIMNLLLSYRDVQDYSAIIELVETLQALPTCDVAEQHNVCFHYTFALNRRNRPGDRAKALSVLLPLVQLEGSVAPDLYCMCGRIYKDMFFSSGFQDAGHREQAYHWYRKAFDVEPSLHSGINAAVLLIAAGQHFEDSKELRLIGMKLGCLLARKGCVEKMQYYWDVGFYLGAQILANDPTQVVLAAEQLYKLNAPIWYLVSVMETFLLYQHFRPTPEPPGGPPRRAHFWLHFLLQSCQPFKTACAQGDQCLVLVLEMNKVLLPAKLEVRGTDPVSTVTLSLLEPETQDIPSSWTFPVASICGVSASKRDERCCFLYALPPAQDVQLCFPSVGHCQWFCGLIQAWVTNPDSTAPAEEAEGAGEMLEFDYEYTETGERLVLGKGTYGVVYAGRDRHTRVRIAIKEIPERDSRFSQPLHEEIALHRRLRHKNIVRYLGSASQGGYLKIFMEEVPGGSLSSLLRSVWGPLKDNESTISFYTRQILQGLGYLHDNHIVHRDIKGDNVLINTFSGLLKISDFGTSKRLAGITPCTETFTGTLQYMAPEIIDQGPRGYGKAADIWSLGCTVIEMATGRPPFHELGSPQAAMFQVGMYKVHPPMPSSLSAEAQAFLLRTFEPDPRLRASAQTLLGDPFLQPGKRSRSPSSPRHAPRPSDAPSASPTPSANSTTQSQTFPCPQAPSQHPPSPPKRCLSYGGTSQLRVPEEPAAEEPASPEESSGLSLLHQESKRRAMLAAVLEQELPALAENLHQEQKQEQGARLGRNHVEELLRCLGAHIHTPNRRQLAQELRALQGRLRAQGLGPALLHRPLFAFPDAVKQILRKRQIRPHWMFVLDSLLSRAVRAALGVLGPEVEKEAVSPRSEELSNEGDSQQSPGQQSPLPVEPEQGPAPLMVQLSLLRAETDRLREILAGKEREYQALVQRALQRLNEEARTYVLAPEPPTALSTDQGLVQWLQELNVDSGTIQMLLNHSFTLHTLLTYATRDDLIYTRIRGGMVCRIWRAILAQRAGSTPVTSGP
Kind of test: Selectivity interaction (KinomeScan (DiscoverX)) EUB0000618a MAP3K6. The settings on record: at 10 µM.

Test [7] concerns the target Ribosomal protein S6 kinase alpha-2 (Homo sapiens) (UniProt Q15349). Nature of the test: Selectivity interaction (Upstate Kinase Profiler service (Millipore)) EUB0000056c RPS6KA2. Particulars: at 1 µM.
Test [8] has as its target T2, Serine/threonine-protein kinase DCLK3 (Homo sapiens) (UniProt Q9C098).
T2 sequence (whole entry): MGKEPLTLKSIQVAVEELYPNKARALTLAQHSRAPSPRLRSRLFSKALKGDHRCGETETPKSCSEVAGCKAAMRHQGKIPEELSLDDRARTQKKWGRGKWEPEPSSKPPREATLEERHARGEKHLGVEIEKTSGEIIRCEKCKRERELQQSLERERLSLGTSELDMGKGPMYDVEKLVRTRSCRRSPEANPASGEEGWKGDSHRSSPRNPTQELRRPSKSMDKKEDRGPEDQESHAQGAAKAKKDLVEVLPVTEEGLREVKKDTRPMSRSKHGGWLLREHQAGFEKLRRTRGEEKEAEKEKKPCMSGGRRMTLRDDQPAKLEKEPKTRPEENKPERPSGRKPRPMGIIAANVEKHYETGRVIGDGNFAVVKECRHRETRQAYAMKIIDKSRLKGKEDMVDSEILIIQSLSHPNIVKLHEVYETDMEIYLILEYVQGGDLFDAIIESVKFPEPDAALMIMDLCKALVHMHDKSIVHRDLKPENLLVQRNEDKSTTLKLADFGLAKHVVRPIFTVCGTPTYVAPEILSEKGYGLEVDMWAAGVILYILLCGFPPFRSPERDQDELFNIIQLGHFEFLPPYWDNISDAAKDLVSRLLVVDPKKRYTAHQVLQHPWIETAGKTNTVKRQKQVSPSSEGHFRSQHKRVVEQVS
Kind of test: Selectivity interaction (KinomeScan (DiscoverX)) EUB0000595a DCLK3. Particulars: at 10 µM.

Test [9] addresses Serine/threonine-protein kinase VRK2 (Homo sapiens) (UniProt Q86Y07). Nature of the test: Selectivity interaction (KinomeScan (DiscoverX)) EUB0000595a VRK2. The settings on record: at 10 µM.
In test [10] the target is T3, Myosin light chain kinase family member 4 (Homo sapiens) (UniProt Q86YV6).
T3 sequence (whole entry): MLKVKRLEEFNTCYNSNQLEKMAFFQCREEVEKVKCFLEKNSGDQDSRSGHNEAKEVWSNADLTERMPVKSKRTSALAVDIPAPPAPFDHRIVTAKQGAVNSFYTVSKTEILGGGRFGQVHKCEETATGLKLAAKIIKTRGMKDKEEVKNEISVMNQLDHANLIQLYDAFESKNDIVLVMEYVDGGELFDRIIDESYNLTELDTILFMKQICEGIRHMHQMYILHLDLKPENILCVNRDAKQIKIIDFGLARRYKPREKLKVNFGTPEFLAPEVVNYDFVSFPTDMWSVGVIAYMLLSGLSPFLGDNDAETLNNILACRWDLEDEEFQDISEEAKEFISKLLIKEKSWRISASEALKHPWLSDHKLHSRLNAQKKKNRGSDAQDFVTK
The settings on record: at 10 µM.

Molecules are shown by their SMILES. Where only a bound is given, the exact number is not on record here.

Chain of Tyrosine-protein kinase ABL2 (P42684 whole entry): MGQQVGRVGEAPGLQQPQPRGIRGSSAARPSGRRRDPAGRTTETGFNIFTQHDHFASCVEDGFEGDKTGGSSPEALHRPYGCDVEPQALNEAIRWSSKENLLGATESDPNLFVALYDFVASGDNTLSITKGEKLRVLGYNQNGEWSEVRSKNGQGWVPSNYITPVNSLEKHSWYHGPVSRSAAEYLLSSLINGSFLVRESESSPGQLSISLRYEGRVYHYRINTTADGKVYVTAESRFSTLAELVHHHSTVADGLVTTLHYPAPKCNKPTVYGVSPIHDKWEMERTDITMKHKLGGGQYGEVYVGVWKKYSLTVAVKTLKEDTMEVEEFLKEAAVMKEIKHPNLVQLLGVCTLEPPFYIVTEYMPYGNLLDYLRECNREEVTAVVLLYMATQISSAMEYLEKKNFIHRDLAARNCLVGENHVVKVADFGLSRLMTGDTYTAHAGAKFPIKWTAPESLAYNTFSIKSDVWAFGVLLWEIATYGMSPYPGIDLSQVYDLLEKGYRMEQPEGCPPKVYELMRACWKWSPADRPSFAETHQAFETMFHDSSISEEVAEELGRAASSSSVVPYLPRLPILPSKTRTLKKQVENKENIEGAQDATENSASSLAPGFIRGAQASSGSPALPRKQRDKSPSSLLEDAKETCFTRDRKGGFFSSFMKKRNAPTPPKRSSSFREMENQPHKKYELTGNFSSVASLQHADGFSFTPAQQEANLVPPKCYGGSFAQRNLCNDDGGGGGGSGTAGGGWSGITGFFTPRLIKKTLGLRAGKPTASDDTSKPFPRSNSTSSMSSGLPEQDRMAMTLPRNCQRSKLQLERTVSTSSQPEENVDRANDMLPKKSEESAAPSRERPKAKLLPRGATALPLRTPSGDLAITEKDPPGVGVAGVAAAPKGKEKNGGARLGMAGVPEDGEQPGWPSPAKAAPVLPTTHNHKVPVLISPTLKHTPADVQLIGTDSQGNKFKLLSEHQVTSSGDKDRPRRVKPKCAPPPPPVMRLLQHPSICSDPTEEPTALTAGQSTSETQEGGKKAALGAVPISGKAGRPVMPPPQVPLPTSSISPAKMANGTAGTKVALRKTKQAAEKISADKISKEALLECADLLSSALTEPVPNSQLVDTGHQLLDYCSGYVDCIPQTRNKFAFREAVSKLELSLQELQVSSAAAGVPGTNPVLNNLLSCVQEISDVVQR
Chain of Serine/threonine-protein kinase VRK2 (Homo sapiens) (Q86Y07 whole entry): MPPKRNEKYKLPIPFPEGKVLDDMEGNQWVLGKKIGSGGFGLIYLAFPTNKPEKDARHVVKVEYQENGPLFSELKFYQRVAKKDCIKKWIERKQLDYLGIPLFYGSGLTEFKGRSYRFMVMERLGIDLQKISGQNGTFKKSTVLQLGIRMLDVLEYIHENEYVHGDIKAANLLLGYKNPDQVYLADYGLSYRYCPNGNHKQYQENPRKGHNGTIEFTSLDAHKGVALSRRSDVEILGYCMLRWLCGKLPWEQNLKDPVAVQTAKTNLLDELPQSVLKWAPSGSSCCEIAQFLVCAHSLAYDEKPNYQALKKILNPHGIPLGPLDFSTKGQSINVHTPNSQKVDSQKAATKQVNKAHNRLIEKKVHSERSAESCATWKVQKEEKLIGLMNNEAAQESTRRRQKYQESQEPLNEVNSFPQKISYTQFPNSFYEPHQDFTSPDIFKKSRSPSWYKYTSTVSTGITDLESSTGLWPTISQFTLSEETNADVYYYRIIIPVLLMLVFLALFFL
Chain of Hepatocyte growth factor receptor (Homo sapiens), P08581 [Y1235D] (P08581 whole entry Y1235D): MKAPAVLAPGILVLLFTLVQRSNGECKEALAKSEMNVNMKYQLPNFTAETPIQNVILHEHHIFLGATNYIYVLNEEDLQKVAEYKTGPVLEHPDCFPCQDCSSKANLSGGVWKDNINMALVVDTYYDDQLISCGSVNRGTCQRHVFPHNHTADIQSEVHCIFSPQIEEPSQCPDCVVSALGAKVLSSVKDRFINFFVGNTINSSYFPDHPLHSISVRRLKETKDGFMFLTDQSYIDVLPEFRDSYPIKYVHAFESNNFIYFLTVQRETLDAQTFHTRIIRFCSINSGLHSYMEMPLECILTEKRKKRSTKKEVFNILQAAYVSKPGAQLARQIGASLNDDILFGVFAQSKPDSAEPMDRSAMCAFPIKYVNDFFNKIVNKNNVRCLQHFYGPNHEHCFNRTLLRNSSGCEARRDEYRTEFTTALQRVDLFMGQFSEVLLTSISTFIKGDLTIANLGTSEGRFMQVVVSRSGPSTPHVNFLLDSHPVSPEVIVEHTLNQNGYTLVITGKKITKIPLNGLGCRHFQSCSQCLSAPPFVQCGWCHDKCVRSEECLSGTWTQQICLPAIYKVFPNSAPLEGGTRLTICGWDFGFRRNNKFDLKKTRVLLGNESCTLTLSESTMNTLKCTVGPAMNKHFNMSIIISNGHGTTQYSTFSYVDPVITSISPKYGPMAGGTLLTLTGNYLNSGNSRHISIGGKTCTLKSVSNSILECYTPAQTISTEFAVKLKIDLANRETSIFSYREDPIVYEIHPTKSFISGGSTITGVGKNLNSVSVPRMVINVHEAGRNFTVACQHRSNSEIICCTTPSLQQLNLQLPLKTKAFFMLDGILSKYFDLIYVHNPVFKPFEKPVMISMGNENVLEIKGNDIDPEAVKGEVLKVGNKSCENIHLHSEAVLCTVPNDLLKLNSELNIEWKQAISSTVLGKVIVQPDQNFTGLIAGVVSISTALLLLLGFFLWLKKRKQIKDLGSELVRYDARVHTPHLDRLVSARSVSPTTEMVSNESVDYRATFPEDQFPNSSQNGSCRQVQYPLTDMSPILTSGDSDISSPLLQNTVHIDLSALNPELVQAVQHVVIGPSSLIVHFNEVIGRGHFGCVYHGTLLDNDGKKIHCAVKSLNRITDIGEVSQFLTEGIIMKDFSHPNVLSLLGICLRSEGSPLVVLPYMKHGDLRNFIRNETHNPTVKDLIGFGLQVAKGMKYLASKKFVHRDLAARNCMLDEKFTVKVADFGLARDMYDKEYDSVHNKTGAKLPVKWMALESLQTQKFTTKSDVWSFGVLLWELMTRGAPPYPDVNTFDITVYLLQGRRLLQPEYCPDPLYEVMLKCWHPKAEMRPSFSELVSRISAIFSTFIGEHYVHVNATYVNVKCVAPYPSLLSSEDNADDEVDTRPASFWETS

For the molecule `CNC(=O)Nc1ccc(-c2nc(N3CC4CCC(C3)O4)c3cnn(C4CCC5(CC4)OCCO5)c3n2)cc1`, the % of control in test [1] is 80%.

For the molecule `Cc1cc([C@@H](C)Nc2ccccc2C(=O)O)c2nc(N3CCOCC3)cc(=O)n2c1` [AZD-6482], the figures for the % of control in [2] and in [3] were 95% and 78%, respectively.

The molecule `Cc1cnc(Nc2ccc(F)cc2Cl)nc1-c1c[nH]c(C(=O)N[C@H](CO)c2cccc(Cl)c2)c1` registered an inhibition constant (Ki) in test [4] of more than 4 µM.

`COc1cc(Nc2nc(C)cc(-c3cnn4nc(OC)ccc34)n2)cc(C(F)(F)F)c1` yielded a % of control in test [5] of 82%.

`O[C@H]1CC[C@H](Nc2ncc3nc(Nc4c(F)cc(F)cc4F)n([C@H]4CCOC4)c3n2)CC1` returned a % of control in test [6] of 88%.

On to `Cc1ccc(-c2ccc3c(ccc4sc5c(c43)NC[C@@H](C)NC5=O)n2)cn1`, for which the % of inhibition in test [7] amounted to 49%.

On to `COCC(=O)NC/C=C/c1ccc2ncnc(Nc3ccc(Oc4ccc(C)nc4)c(C)c3)c2c1` [CP-724714], for which the % of control was found to be 83% in test [8], 100% in [9] and 100% in test [10].

The record behind these values is ChEMBL document CHEMBL5465560, “Selectivity Literature for EUbOPEN Chemogenomic Library” (2024).
